{"source": "patent US20240024494A1", "about": "“SMALL-MOLECULE CONJUGATE AND USE THEREOF” (SHANGHAI MEWSGEN BIOTECHNOLOGY CO., LTD, priority 2020, published 2024)", "key": {"[1]": {"system": "human esophageal cancer KYSE-150", "test": "In-vivo antitumor activity test in human esophageal cancer KYSE-150 (subcutaneous tumor block in nude mice)", "parameters": "species or system BALB/C nude mice", "conditions": "for RTV (d22) / Body weight of animals (After a tumor is removed) / Tumor inhibition rate %: KYSE-150; for Body weight of animals (After a tumor is removed) / Tumor inhibition rate %: d22", "description": "(§1) Animals: BALB/C nude mice (SPF grade), male, and 18-20 g. The compounds were firstly added with DMSO at a total amount of 4%, then added with Tween-80 at a total amount of 2% for assisting dissolution, then added with PEG300 at a total amount of 5%, and finally added with sterilized normal saline to be prepared into a solution at 1 mg/mL. Idasanutlin was firstly added with DMSO at a total amount of 4%, then added with Tween-80 at a total amount of 2% for assisting dissolution, then added with PEG300 at a total amount of 5%, and finally added with sterilized normal saline to be prepared into a solution at 2.5 mg/mL.\n(§2) A well-grown human esophageal cancer KYSE-150 tumor mass was taken and aseptically cut into uniform small blocks of about 3 mm in size, and a right axilla of each mouse was subcutaneously inoculated with one block through a trocar. […] The animals were regrouped according to a tumor size. The animals with too large and too small tumors were sifted out. An average tumor volume in each group was approximately the same. An administration was started according to the following solution with an administration volume of 0.2 mL/20 g body weight. A long diameter a (mm) of the tumor and a short diameter b (mm) vertical to the tumor were measured by a digital display electronic caliper 2 times a week from day 9 of the inoculation. A tumor volume was calculated by the formula: TV=ab^2/2, and a relative tumor volume was calculated by the formula: RTV=Vt/Vo, wherein Vo was the obtained tumor volume measured at a cage separation (i.e. d1) and Vt was the tumor volume measured at each time. The animals were sacrificed 30 days after the inoculation (d22) and weighed, tumor mass was obtained by dissection and weighed, and the results were determined according to the following formula: […]"}, "hERG potassium channel": {"biological_target": "hERG potassium channel (Homo sapiens, UniProt Q12809)", "sequence (Q12809 whole entry)": "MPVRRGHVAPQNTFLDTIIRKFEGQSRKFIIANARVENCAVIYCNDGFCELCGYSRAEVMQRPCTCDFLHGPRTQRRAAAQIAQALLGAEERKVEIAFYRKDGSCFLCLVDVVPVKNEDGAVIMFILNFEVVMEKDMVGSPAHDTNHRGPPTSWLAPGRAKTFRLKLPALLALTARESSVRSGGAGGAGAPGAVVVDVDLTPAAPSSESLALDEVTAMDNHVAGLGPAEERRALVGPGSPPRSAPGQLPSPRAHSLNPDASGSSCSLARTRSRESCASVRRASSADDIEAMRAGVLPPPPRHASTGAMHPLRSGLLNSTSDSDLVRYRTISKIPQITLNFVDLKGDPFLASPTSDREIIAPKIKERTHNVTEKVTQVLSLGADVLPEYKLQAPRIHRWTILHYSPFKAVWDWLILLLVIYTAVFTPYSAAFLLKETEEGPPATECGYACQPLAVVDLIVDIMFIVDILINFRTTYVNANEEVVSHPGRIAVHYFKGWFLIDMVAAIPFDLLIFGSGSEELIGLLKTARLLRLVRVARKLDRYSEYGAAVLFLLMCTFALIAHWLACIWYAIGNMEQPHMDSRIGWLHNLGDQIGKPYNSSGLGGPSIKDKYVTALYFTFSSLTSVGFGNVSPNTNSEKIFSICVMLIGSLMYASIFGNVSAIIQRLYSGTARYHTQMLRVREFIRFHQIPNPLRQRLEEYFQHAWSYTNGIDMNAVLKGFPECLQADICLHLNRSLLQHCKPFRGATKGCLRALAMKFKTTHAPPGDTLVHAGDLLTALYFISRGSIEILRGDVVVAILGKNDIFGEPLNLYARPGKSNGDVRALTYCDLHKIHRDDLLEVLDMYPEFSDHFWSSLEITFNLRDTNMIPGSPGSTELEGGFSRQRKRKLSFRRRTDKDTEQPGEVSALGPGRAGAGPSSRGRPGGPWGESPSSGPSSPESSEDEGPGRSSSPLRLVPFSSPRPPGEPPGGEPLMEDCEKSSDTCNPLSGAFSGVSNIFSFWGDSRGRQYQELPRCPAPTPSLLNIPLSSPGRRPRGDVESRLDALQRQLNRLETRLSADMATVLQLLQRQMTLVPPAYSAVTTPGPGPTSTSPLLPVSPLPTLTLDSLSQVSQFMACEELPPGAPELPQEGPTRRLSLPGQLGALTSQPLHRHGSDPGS", "test": "cell-based", "method": "CHO-hERG cells were cultured in a 175-cm^2 culture flask. After a cell density reached a culture solution was removed, and the cells were washed once with 7 mL of phosphate buffered saline (PBS) and digested with 3 mL of detachin. After the complete digestion, 7 mL of a culture solution was added for neutralization, the mixture was centrifuged, a supernatant was sucked away, and then 5 mL of the culture solution was added for resuspension so as to ensure that the cell density was 2-5×10^6/mL.\nForming processes of single-cell high-impedance sealing and whole-cell mode were both automatically completed by a Qpatch instrument. After a whole-cell recording mode was obtained, cells were clamped at −80 millivolts. Before a depolarization stimulation of +40 millivolt for 5 seconds was given, a preset voltage of −50 millivolts was firstly given for 50 milliseconds, then repolarization was performed to −50 millivolt and maintained for 5 seconds, and then the voltage returned to −80 millivolts. […] At least 3 cells (n≥3) were tested per concentration.\n20 mM of a compound stock was diluted in DMSO, and 10 μL of 20 mM of the compound stock was added to 20 μL of a DMSO solution and triply serially diluted to 6 DMSO concentrations. […] Experimental data was analyzed by a GraphPad Prism 5.0 software."}, "[2]": {"system": "SW1990 (human pancreatic carcinoma cells)", "test": "Tumor cell proliferation inhibition test, CCK-8 method (Example 19)", "type": "cell-based", "description": "(§3) A part of the compounds prepared in the examples of the present disclosure were subjected to a tumor cell proliferation inhibition test by using a CCK-8 method. A cell line HCT116 (human colon carcinoma cells) and SW1990 (human pancreatic carcinoma cells) were purchased from Shanghai Meixuan Technology Co., Ltd. Samples (a part of the compounds prepared in the examples) were dissolved in DMSO (Merck), prepared into a concentration of 10 mM, and finally triply diluted in DMEM or McCoy's 5A 1640 medium to 8 concentration gradients. A cell culture solution was collected when a cell culture met a test requirement, 10 μL of the cell culture solution was uniformly coated on a cell counting plate, cells were counted for 3 times under a microscope, and a cell density was calculated by taking an average value; and a 96-well plate (Corning, #3599) was taken, 200 μL of the cell culture solution was added into each well for cell inoculation at a cell concentration of 6×10^3 cells per well, and the inoculated 96-well plate was incubated in a cell incubator containing 5% CO2 at 37° C. for 24 h. An old culture medium was removed by suction, 200 μL of the triply diluted sample DMEM or McCoy's 5A 1640 medium at an initial concentration of 10 μmol/L was added to each well, the DMSO content was controlled to be 1%, three duplicate wells were set, PBS was used as a blank control, and the plate was incubated in the incubator for 72 h. The original DMEM or McCoy's 5A 1640 medium in the 96-well plate and a PBS buffer in a final row were sucked out, a prepared CCK-8 solution (90% DMEM or McCoy's 5A 1640 medium+10% CCK-8) was added, the mixture was incubated in an incubator, and an absorbance was read by using a Biotek microplate reader. Cell growth inhibition rate IC %=(blank control well OD value−administration well OD value)/blank control well OD value×100%."}, "[3]": {"system": "HCT116 (human colon carcinoma cells)", "test": "Tumor cell proliferation inhibition test, CCK-8 method (Example 19)", "type": "cell-based", "description": "as §3"}, "[4]": {"system": "human gastric carcinoma MGC803", "test": "In-vivo antitumor activity test in human gastric carcinoma MGC803 (subcutaneous tumor block in nude mice)", "parameters": "species or system BALB/C nude mice", "conditions": "for RTV (d22) / Body weight of animals (After a tumor is removed) / Tumor inhibition rate %: MGC803; for Body weight of animals (After a tumor is removed) / Tumor inhibition rate %: d22", "description": "as §1\nas §2, with “gastric carcinoma MGC803” for “esophageal cancer KYSE-150”"}, "[5]": {"test": "In-vivo antitumor activity test in human stromal tumor SHG44 (subcutaneous tumor block in nude mice)", "parameters": "species or system BALB/C nude mice", "conditions": "for RTV (d22) / Tumor inhibition rate % / Body weight of animals (After a tumor is removed): SHG44; for Tumor inhibition rate % / Body weight of animals (After a tumor is removed): d22; for Body weight of animals (After a tumor is removed): in g (unit assumed)", "description": "as §1\nA well-grown human stromal tumor SHG44 mass was taken and aseptically cut into uniform small blocks of about 3 mm in size, and a right axilla of each mouse was subcutaneously inoculated with one block through a trocar. […] The animals were regrouped according to a tumor size. The animals with too large and too small tumors were sifted out. An average tumor volume in each group was approximately the same. An administration was started according to the following solution with an administration volume of 0.2 mL/20 g body weight. A long diameter a (mm) of the tumor and a short diameter b (mm) vertical to the tumor were measured by a digital display electronic caliper 2 times a week from day 9 of the inoculation. A tumor volume was calculated by the formula: TV=ab^2/2, and a relative tumor volume was calculated by the formula: RTV=Vt/Vo, wherein Vo was the obtained tumor volume measured at a cage separation (i.e. d1) and Vt was the tumor volume measured at each time. The animals were sacrificed 30 days after the inoculation (d22) and weighed, tumor mass was obtained by dissection and weighed, and the results were determined according to the following formula: […]"}, "[6]": {"conditions": "10 mg/kg, Ipx5 each week for 2 continuous weeks"}}, "note": "pIC50: −log10 of the molar value. Like-named read-outs stand apart in the source and are kept apart here."}
{"smiles": "COc1cc(C(=O)NCCOCCOCCOCCOCCC(=O)N[C@@H](C(=O)N[C@@H](CCCNC(N)=O)C(=O)Nc2ccc(COC(=O)N3CCN(C(=O)O[C@H]4CC[C@@]5(C)[C@H](CC[C@@H]6[C@@H]5[C@H](O)C(=O)[C@]5(C)[C@@H](c7ccc(=O)oc7)CC[C@]65O)C4)CC3)cc2)C(C)C)ccc1NC(=O)[C@@H]1N[C@@H](CC(C)(C)C)[C@](C#N)(c2ccc(Cl)cc2F)[C@H]1c1cccc(Cl)c1F", "note": "[Compound I-1]", "values": [{"measurement": "in-vivo antitumor activity of the human esophageal cancer KYSE-150 (in words)", "setting": "[1]", "result": "good in-vivo antitumor activity"}, {"measurement": "RTV (d22)", "setting": "[1]; [6]", "result": "4.87 ± 0.92"}, {"measurement": "Body weight of animals (After a tumor is removed)", "setting": "[1]; [6]", "result": "24.51 ± 1.40"}, {"measurement": "Tumor inhibition rate %", "setting": "[1]; [6]", "result": 50.45, "unit": "%"}, {"measurement": "pIC50", "setting": "hERG potassium channel", "result": "< 4.40"}, {"measurement": "pIC50", "setting": "[2]; 72 h", "result": 8.15}, {"measurement": "pIC50", "setting": "[3]; 72 h", "result": 7.47}, {"measurement": "in-vivo antitumor activity of the human gastric carcinoma MGC803 (in words)", "setting": "[4]", "result": "good in-vivo antitumor activity"}, {"measurement": "RTV (d22)", "setting": "[4]; [6]", "result": "2.45 ± 0.54"}, {"measurement": "Body weight of animals (After a tumor is removed)", "setting": "[4]; [6]", "result": "26.15 ± 1.14"}, {"measurement": "Tumor inhibition rate %", "setting": "[4]; [6]", "result": 38.54, "unit": "%"}, {"measurement": "in-vivo antitumor activity of the human stromal tumor SHG44 (in words)", "setting": "[5]", "result": "good in-vivo antitumor activity"}, {"measurement": "RTV (d22)", "setting": "[5]; [6]", "result": "2.34 ± 0.32"}, {"measurement": "Tumor inhibition rate %", "setting": "[5]; [6]", "result": 52.03, "unit": "%"}, {"measurement": "Body weight of animals (After a tumor is removed)", "setting": "[5]; [6]", "result": "24.78 ± 2.38"}]}
{"smiles": "COc1cc(C(=O)O)ccc1NC(=O)[C@@H]1N[C@@H](CC(C)(C)C)[C@](C#N)(c2ccc(Cl)cc2F)[C@H]1c1cccc(Cl)c1F", "note": "[Idasanutlin, reference compound]", "values": [{"measurement": "RTV (d22)", "setting": "[1]; 25 mg/kg, Igx14", "result": "4.79 ± 0.41"}, {"measurement": "Body weight of animals (After a tumor is removed)", "setting": "[1]; 25 mg/kg, Igx14", "result": "24.03 ± 0.95"}, {"measurement": "Tumor inhibition rate %", "setting": "[1]; 25 mg/kg, Igx14", "result": 51.17, "unit": "%"}, {"measurement": "pIC50", "setting": "[2]; Homo sapiens, SW1990, CCK-8, 72 h, Table 1, read-out: IC50 SW1990", "result": 5.53}, {"measurement": "pIC50", "setting": "[3]; Homo sapiens, HCT-116, CCK-8, 72 h, Table 1, read-out: IC50 HCT116", "result": 5.98}, {"measurement": "RTV (d22)", "setting": "[4]; 25 mg/kg, Igx14", "result": "2.74 ± 0.81"}, {"measurement": "Body weight of animals (After a tumor is removed)", "setting": "[4]; 25 mg/kg, Igx14", "result": "23.58 ± 1.56"}, {"measurement": "Tumor inhibition rate %", "setting": "[4]; 25 mg/kg, Igx14", "result": 31.36, "unit": "%"}, {"measurement": "RTV (d22)", "setting": "[5]; 25 mg/kg, Igx14", "result": "2.95 ± 0.41"}, {"measurement": "Tumor inhibition rate %", "setting": "[5]; 25 mg/kg, Igx14", "result": 39.59, "unit": "%"}, {"measurement": "Body weight of animals (After a tumor is removed)", "setting": "[5]; 25 mg/kg, Igx14", "result": "24.47 ± 1.66"}]}
